Where two headings read alike, the source gives them in different places.
What was measured:
[1] = Single dose exploratory toxicity study; type: in vivo, SD female rat; conditions: 0.4 mg/kg
Procedure: Single dose exploratory toxicity studies in SD female rat (dose 0.5 mg/kg to 1.5 mg/kg) for 7-10 days were carried out. Clinical observations, body weight, clinical blood chemistry, histopathology, and complete blood counts were assessed. In the 10-day study, DM1 (0.4 mg/kg) was compared to Conjugate 57 at an equivalent dose of DM1 (1.0 mg/kg of conjugate) and at a 50% higher dose (1.5 mg/kg of conjugate).
Decreased white blood cell (WBC) count is a known dose limiting toxicity of DM1. WBC count was tracked in all groups.
Liver toxicity is also a know dose limiting toxicity of DM1. Alanine transaminase (ALT) and aspartate aminotransferase (AST) are markers of liver toxicity and were measured in all groups.

[2] = H69 tumor DM-1 levels by LC/MS-MS; type: in vivo, mice; conditions: mouse, tumor (NCI-H69 SCLC xenograft); 0.4 mg/kg for DM-1; 24 hour time point
Procedure: (§1) To examine the ability of conjugates of the present invention to accumulate in tumors, a murine cancer model was used. All mice were treated in accordance with the OLAW Public Health Service Policy on Human Care and Use of Laboratory Animals and the ILAR Guide for the Care and Use of Laboratory Animals. All in vivo studies were conducted following the protocols approved by the Blend Therapeutics Institutional Animal Care and Use Committee. Animals were inoculated with 2.5×10^6 NCI-H69 SCLC (small cell lung cancer) cells in 1:1 RPMI 1640 (Invitrogen, Carlsbad, Calif.)/Matrigel® (BD Biosciences, San Jose, Calif.) via subcutaneous injection to the right flank. Tumors were allowed to reach an approximate volume of ˜500 mm3. Animals were then randomized into treatment groups of 3 animals per time point and were dosed at 1 mg/kg (10% propylene glycol in water for injection for free conjugates, or 10% sucrose for nanoparticles), or 0.4 mg/kg for DM-1 (10% propylene glycol in water for injection). The 24 hour time point was used as a benchmark across conjugates.
(§2) Tumor DM-1 levels were determined by liquid chromatography mass spectrometry (LC/MS-MS). Four volumes of 5 mM 6-maleimidohexanoic acid to 1 part tumor v/w was added and homogenized for about 10-15 seconds with a handheld homogenizer. 10 μL of 500 mM Tris(2-carboxyethyl)phosphine was added to 100 uL of tumor homogenate, mixed well and incubated at room temperature for about 5-15 min. 200-300 uL of acetonitrile was used to precipitate proteins in tumor homogenate, samples were centrifuged for 5 min, and supernatant was injected onto LC/MS-MS system for DM-1 analysis.

[3] = tested on: NCI-H524 human small cell lung cancer cells; experiment: cells; type: cell-based
Procedure: Conjugates of the present invention were assessed in an in vitro assay evaluating inhibition of cell proliferation. NCI-H524 (ATCC) human small cell lung cancer cells were plated in 96 well, V-bottomed plates (Costar) at a concentration of 5,000 cells/well. 24 hours later, cells were treated with either conjugate for 2 hours and further incubated 70 hours, or for octreotide competition experiments, treated with 100 μM octreotide for 30 min, and then treated with conjugate for 2 hours, and further incubated for 70 hours. Conjugate starting dose was 20 μM and three fold serial dilutions were done for a total of ten points. After 2 hours of treatment, cells were spun down, the drug containing media was removed, and fresh complete medium was added and used to resuspend the cells, which were spun again. After removal of the wash media, the cells were resuspended in complete medium, and then transferred into white walled, flat bottomed 96 well plates. […] Proliferation was measured using CellTiter Glo reagent using the standard protocol (Promega) and a Glomax multi+ detection system (Promega). Percent proliferation inhibition was calculated using the following formula: % inhibition=(control−treatment)/control*100. Control is defined as vehicle alone. IC50 curves were generated using the nonlinear regression analysis (four parameter) with GraphPad Prism 6.

[4] = biological target: SSTR4 (Homo sapiens, UniProt P31391); conditions: read-out: Octreoscan Ki; cited from earlier work
[5] = biological target: SSTR2 (Homo sapiens, UniProt P30874); parameters: expressed in transfected cells; conditions: read-out: Octreoscan Ki; cited from earlier work
[6] = biological target: SSTR1 (Homo sapiens, UniProt P30872); conditions: read-out: Octreoscan Ki; cited from earlier work
[7] = biological target: SSTR3 (Homo sapiens, UniProt P32745); conditions: read-out: Octreoscan Ki; cited from earlier work
[8] = biological target: SSTR5 (Homo sapiens, UniProt P35346); conditions: read-out: Octreoscan Ki; cited from earlier work
[9] = tested on: NCI-H69 SCLC tumors; experiment: H69 tumor DM-1 levels by LC/MS-MS; type: in vivo, mice; conditions: 1 mg/kg; 24 hour time point
Procedure: as §1, §2

Chain of SSTR4 (P31391 whole entry): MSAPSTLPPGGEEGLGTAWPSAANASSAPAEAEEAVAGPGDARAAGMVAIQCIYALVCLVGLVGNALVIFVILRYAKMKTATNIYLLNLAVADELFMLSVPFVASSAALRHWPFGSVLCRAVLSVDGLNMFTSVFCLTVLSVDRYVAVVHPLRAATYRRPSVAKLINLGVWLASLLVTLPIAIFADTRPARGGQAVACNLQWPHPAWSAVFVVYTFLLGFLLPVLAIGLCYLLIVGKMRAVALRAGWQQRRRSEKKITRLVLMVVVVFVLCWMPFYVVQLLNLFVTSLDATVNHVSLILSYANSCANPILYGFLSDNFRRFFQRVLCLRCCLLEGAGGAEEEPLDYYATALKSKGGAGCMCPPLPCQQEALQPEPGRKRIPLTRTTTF
Chain of SSTR2 (P30874 whole entry): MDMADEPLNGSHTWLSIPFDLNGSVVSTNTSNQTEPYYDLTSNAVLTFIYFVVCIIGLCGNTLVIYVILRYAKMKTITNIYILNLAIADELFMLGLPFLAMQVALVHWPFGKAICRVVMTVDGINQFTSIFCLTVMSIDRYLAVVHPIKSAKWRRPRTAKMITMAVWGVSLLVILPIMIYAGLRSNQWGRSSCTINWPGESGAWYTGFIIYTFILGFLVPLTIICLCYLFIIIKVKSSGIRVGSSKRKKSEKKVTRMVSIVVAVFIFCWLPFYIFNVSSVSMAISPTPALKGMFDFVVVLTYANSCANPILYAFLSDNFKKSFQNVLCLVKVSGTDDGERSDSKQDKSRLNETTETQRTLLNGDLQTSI
Chain of SSTR3 (P32745 whole entry): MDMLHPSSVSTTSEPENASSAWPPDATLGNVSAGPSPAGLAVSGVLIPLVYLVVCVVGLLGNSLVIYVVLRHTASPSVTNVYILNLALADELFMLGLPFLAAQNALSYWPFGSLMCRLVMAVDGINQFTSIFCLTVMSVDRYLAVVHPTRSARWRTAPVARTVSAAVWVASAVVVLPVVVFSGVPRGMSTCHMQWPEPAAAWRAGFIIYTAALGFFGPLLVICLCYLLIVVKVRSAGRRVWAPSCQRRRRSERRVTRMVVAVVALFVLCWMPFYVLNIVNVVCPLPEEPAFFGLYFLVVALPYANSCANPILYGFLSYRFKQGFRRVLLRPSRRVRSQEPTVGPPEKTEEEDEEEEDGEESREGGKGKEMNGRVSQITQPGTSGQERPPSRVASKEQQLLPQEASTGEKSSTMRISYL
Chain of SSTR1 (P30872 whole entry): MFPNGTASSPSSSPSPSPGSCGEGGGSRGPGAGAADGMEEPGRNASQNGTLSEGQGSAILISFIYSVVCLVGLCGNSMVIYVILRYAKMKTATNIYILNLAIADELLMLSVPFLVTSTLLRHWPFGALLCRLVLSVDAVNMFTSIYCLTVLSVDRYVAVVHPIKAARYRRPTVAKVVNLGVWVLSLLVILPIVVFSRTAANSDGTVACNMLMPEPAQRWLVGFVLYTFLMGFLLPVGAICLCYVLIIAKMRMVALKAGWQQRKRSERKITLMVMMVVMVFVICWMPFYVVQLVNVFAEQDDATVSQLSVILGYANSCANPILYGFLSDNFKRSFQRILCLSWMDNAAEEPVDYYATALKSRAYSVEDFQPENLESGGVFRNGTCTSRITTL
Chain of SSTR5 (P35346 whole entry): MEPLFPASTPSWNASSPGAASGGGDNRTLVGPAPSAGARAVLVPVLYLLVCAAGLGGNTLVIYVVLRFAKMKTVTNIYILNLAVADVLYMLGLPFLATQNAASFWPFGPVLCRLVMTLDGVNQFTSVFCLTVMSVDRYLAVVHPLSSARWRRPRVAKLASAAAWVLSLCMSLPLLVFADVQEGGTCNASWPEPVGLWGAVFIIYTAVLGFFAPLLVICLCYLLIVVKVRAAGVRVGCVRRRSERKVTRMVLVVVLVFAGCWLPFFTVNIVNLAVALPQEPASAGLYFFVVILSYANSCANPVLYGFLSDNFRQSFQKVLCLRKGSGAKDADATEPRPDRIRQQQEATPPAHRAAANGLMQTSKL

Molecule: COc1cc2cc(c1Cl)N(C)C(=O)C[C@H](OC(=O)[C@H](C)N(C)C(=O)CCS)C1(C)O[C@H]1[C@H](C)[C@@H]1C[C@@](O)(NC(=O)O1)[C@H](OC)/C=C/C=C(\C)C2 (stereo partly drawn) [DM-1, mertansine, reference compound]
- AST and ALT [1]: dramatic increases in AST and ALT at day 5
- Day 5 weight change (%) [1]: −18%
- WBC count [1]: dramatic decreases in WBC count
- clinical outcome [1]: had to be euthanized on day 5 because they were moribund
- concentration at 24 h [2]: 31.6 nM
- IC50 ([3]; Homo sapiens, NCI-H524, read-out: H524 IC50 (nM)): 90 nM
- IC50 ([3]; Homo sapiens, NCI-H524, read-out: H524 IC50+ 100 uM octreotide (nM)): 90 nM

Molecule: Indium-111 pentetreotide [Octreoscan]
- Ki [4]: > 1000 nM
- Ki [5]: 22 nM
- Ki [6]: > 10000 nM
- Ki [7]: 182 nM
- Ki [8]: 237 nM

Molecule: COc1cc2cc(c1Cl)N(C)C(=O)C[C@H](OC(=O)[C@H](C)N(C)C(=O)CCSSCCCN[C@H](Cc1ccccc1)C(=O)N[C@H]1CSSC[C@@H](C(=O)N[C@H](CO)[C@@H](C)O)NC(=O)[C@H]([C@@H](C)O)NC(=O)[C@H](CCCCN)NC(=O)[C@@H](Cc3c[nH]c4ccccc34)NC(=O)[C@H](Cc3ccccc3)NC1=O)[C@]1(C)O[C@H]1[C@H](C)[C@@H]1C[C@@](O)(NC(=O)O1)[C@H](OC)/C=C/C=C(\C)C2 [Conjugate 76]
- H69 tumor DM-1 levels [9]: 62.2 nM

Molecule: CCCCN(CCSSCCC(=O)N(C)[C@@H](C)C(=O)O[C@H]1CC(=O)N(C)c2cc(cc(OC)c2Cl)C/C(C)=C/C=C/[C@@H](OC)[C@@]2(O)C[C@H](OC(=O)N2)[C@@H](C)[C@@H]2O[C@@]12C)C(=O)CC[C@H]1C(=O)N[C@@H](Cc2ccc(O)cc2)C(=O)N[C@H](Cc2c[nH]c3ccccc23)C(=O)N[C@@H](CCCCN)C(=O)N[C@@H]([C@@H](C)O)C(=O)N[C@@H](Cc2ccccc2)C(=O)N1C [Conjugate 22]
- H69 tumor DM-1 levels [9]: 145 nM

Molecule: COc1cc2cc(c1Cl)N(C)C(=O)C[C@H](OC(=O)[C@H](C)N(C)C(=O)CCSSC[C@H](NC(=O)CC[C@H]1C(=O)N[C@@H](Cc3ccc(O)cc3)C(=O)N[C@H](Cc3c[nH]c4ccccc34)C(=O)N[C@@H](CCCCN)C(=O)N[C@@H]([C@@H](C)O)C(=O)N[C@@H](Cc3ccccc3)C(=O)N1C)C(=O)NC(C)(C)CC(C)(C)C)[C@]1(C)O[C@H]1[C@H](C)[C@@H]1C[C@@](O)(NC(=O)O1)[C@H](OC)/C=C/C=C(\C)C2 [Conjugate 16]
- H69 tumor DM-1 levels [9]: 96.4 nM

Molecule: COc1cc2cc(c1Cl)N(C)C(=O)C[C@H](OC(=O)[C@H](C)N(C)C(=O)CCSSCCCN[C@H](Cc1ccccc1)C(=O)N[C@H]1CSSC[C@@H](C(=O)N[C@H](C(=O)O)[C@@H](C)O)NC(=O)[C@H]([C@@H](C)O)NC(=O)[C@H](CCCCN)NC(=O)[C@@H](Cc3c[nH]c4ccccc34)NC(=O)[C@H](Cc3ccc(O)cc3)NC1=O)[C@]1(C)O[C@H]1[C@H](C)[C@@H]1C[C@@](O)(NC(=O)O1)[C@H](OC)/C=C/C=C(\C)C2 [Conjugate 80]
- H69 tumor DM-1 levels [9]: 91.2 nM

Molecule: COc1cc2cc(c1Cl)N(C)C(=O)C[C@H](OC(=O)[C@H](C)N(C)C(=O)CCSSCCC(=O)NCc1ccc(C[C@@H](N)C(=O)N[C@H]3CSSC[C@@H](C(=O)N[C@H](C(=O)O)[C@@H](C)O)NC(=O)[C@H]([C@@H](C)O)NC(=O)[C@H](CCCCN)NC(=O)[C@@H](Cc4c[nH]c5ccccc45)NC(=O)[C@H](Cc4ccc(O)cc4)NC3=O)cc1)[C@]1(C)O[C@H]1[C@H](C)[C@@H]1C[C@@](O)(NC(=O)O1)[C@H](OC)/C=C/C=C(\C)C2 [Conjugate 115]
- H69 tumor DM-1 levels [9]: 37.1 nM

Molecule: CCCCCCCCN[C@H](Cc1ccccc1)C(=O)N[C@H]1CSSC[C@@H](C(=O)N[C@H](C(=O)NCCSSCCC(=O)N(C)[C@@H](C)C(=O)O[C@H]2CC(=O)N(C)c3cc(cc(OC)c3Cl)C/C(C)=C/C=C/[C@@H](OC)[C@@]3(O)C[C@H](OC(=O)N3)[C@@H](C)[C@@H]3O[C@@]23C)[C@@H](C)O)NC(=O)[C@H]([C@@H](C)O)NC(=O)[C@H](CCCCN)NC(=O)[C@@H](Cc2c[nH]c3ccccc23)NC(=O)[C@H](Cc2ccc(O)cc2)NC1=O [Conjugate 55]
- H69 tumor DM-1 levels [9]: 95.3 nM

Molecule: COc1cc2cc(c1Cl)N(C)C(=O)C[C@H](OC(=O)[C@H](C)N(C)C(=O)CCSSCCC(=O)NCCCC[C@H]1C(=O)N[C@@H](Cc3ccc(O)cc3)C(=O)N[C@H](Cc3c[nH]c4ccccc34)C(=O)N[C@@H](CCCCN)C(=O)N[C@@H]([C@@H](C)O)C(=O)N[C@@H](Cc3ccccc3)C(=O)N1C)[C@]1(C)O[C@H]1[C@H](C)[C@@H]1C[C@@](O)(NC(=O)O1)[C@H](OC)/C=C/C=C(\C)C2 [Conjugate 10]
- H69 tumor DM-1 levels [9]: 72.1 nM

Molecule: COc1cc2cc(c1Cl)N(C)C(=O)C[C@H](OC(=O)[C@H](C)N(C)C(=O)CCSSCCNC(=O)[C@@H](NC(=O)[C@@H]1CSSC[C@H](NC(=O)[C@H](N)Cc3ccccc3)C(=O)N[C@@H](Cc3ccc(O)cc3)C(=O)N[C@H](Cc3c[nH]c4ccccc34)C(=O)N[C@@H](CCCCN)C(=O)N[C@@H]([C@@H](C)O)C(=O)N1)[C@@H](C)O)[C@]1(C)O[C@H]1[C@H](C)[C@@H]1C[C@@](O)(NC(=O)O1)[C@H](OC)/C=C/C=C(\C)C2 [Conjugate 35]
- H69 tumor DM-1 levels [9]: 23.2 nM

Molecule: COc1cc2cc(c1Cl)N(C)C(=O)C[C@H](OC(=O)C(C)N(C)C(=O)CCSSCCC(=O)NCCCOCCOCCOCCCNC(=O)CC[C@H]1C(=O)N[C@@H](Cc3ccc(O)cc3)C(=O)N[C@H](Cc3c[nH]c4ccccc34)C(=O)N[C@@H](CCCCN)C(=O)N[C@@H]([C@@H](C)O)C(=O)N[C@@H](Cc3ccccc3)C(=O)N1C)[C@]1(C)O[C@H]1[C@H](C)[C@@H]1C[C@@](O)(NC(=O)O1)[C@H](OC)/C=C/C=C(\C)C2 (stereo partly drawn) [Conjugate 18]
- H69 tumor DM-1 levels [9]: 86.3 nM
- IC50 ([3]; 2 hours treatment, 70 hours further incubation, read-out: H524 IC50): 1480 nM
- IC50 ([3]; read-out: H524 IC50+ 100 uM octreotide, 100 μM octreotide for 30 min before conjugate): 2160 nM

Molecule: COc1cc2cc(c1Cl)N(C)C(=O)C[C@H](OC(=O)[C@H](C)N(C)C(=O)CCSSCCOc1ccc(C[C@@H](N)C(=O)N[C@H]3CSSC[C@@H](C(=O)N[C@H](C(=O)O)[C@@H](C)O)NC(=O)[C@H]([C@@H](C)O)NC(=O)[C@H](CCCCN)NC(=O)[C@@H](Cc4c[nH]c5ccccc45)NC(=O)[C@H](Cc4ccc(O)cc4)NC3=O)cc1)[C@]1(C)O[C@H]1[C@H](C)[C@@H]1C[C@@](O)(NC(=O)O1)[C@H](OC)/C=C/C=C(\C)C2 [Conjugate 111]
- H69 tumor DM-1 levels [9]: 82.6 nM

Reference: patent publication US11160871B2, “SSTR-targeted conjugates and particles and formulations thereof” (TARVEDA THERAPEUTICS, INC., priority 2015, dated 2021)
